{"source": "patent US20060008891A1", "about": "“Cathepsin G-related peptides as modulators of formylpeptide receptors (FPR)” (The Government of USA as repersented by the Secretary, …, priority 2004, published 2006)", "key": {"FPR [1]": {"target": "T1, FPR (Homo sapiens, UniProt P21462)", "T1 construct": "expressed in transfected cells; host or cells: Rat basophilic leukemia (RBL) cells, stably transfected (ETFR cells); gift of H. Ali and R. Snyderman, Duke University", "T1 sequence (P21462 1-350)": "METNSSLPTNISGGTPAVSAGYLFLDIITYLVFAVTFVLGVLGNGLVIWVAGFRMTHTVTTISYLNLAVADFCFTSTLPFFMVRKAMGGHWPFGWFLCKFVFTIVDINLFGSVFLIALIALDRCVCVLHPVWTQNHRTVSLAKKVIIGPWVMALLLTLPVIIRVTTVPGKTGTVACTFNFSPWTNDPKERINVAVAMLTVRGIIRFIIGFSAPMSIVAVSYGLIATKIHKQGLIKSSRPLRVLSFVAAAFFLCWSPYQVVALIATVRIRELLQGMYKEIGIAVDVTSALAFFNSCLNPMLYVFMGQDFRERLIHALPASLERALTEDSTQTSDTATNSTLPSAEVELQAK", "assay": "125I-CaG binding to ETFR cells", "details": "LIGAND program", "description": "CaG was iodinated with a chrolamine-T method (Lofstrand Labs, Gaithersburg, Md.) with a specific activity of […] protein. Duplicate samples of ETFR cells or the parental RBL cells (2×10^6 cells in 200 μl RPMI 1640 containing 1% bovine serum albumin, 25 mM Hepes, and 0.05% NaN3) were incubated with 25 nM ^125I-CaG, in the presence of increasing concentrations of unlabeled ligands. After incubation and rotation at room temperature for 1 h, the cells were pelleted through a 10% sucrose/PBS cushion for 1 min at 10,000 g. The supernatant was removed and the radioactivity associated with cell pellets was measured in a γ counter (CliniGamma, Pharmacia Biotech Inc.). The binding data were analyzed with a Macintosh computer-aided program LIGAND (Dr. P. Munson, Division of Computer Research and Technology, NIH, Bethesda, Md.)."}, "FPR [2]": {"target": "T1, FPR", "assay": "FPR internalization (confocal microscopy), ETFR cells", "type": "cell-based", "details": "30 min 37° C.", "description": "For detection of FPR internalization, ETFR cells were seeded on coverslips and cultured overnight in DMEM containing 10% FCS at 37° C. After pretreatment with medium or stimulants for 30 minutes at 37° C., the cells were fixed in 0.25% paraformaldehyde for 15 min at 4° C. The cells were then permeabilized with 0.2% Tween 20 for 30 min at 4° C., followed by incubation with a monoclonal anti-human FPR antibody or isotype matched IgG for 30 min at 4° C. After three washes with 0.1% Tween 20 in DPBS, a FITC-labeled rat anti-mouse antibody (PharMingen) was applied to the cells for 30 min at 4° C. The coverslips were covered with DAPI, then mounted with an anti-fade, water-based mounting medium and analyzed under a laser scanning Zeiss LSM410 fluorescence confocal microscope."}, "ERK1/2": {"system": "ERK1/2", "assay": "Phosphorylation of ERK1/2 in ETFR cells (Western blot)", "type": "cell-based, rat", "description": "ETFR cells were plated in Petri dishes and cultured in DMEM at 37° C. in humidified 5% CO2 atmosphere for 48 h. After further culture in serum-free DMEM overnight, the cells were treated with stimulants for indicated time periods. The reaction was stopped by adding 1 ml ice-cold PBS, and the cells were lysed in 1×SDS lysis buffer (62.5 mM Tris-HCl, 2% w/v SDS, 10% glycerol, 50 mM DTT, pH 6.8) and harvested into tubes for sonication. Proteins (50 μg for each sample) were resolved by SDS-PAGE and transferred onto nitrocellulose membranes (Bio-Rad, Hercules, Calif.). The membranes were blocked for 2 h at room temperature in 3% non-fat milk prepared in Tris-buffered saline-T (10 mM Tris-HCl, pH 7.5, 150 mM NaCl, 0.1% Tween 20) and probed with anti-p-ERK1/2, p-p38 MAPK, or p-Akt (1:1000) at room temperature for 1-2 h or at 4° C. overnight. The membranes were then washed and incubated with horseradish peroxidase-conjugated secondary antibodies diluted in Tris-buffered saline-T for 1 h at room temperature. The immune complexes on the membranes were visualized using ECL reagents. Total ERK1/2, p38 MAPK, and Akt were visualized by stripping the same membrane and probing with antibodies against total ERK1/2, p38 MAPK, and Akt."}, "PKCα/β": {"system": "PKCα/β", "assay": "PKCα/β translocation in ETFR cells", "type": "cell-based, rat", "details": "100 nM fMLF, 10 μg/ml CaG or PMA 500 nM, 37° C. 10 min", "description": "ETFR cells were seeded on coverslips and cultured overnight in DMEM containing 1% FCS at 37° C. After further culture in FCS-free DMEM for 3 h, cells were treated with stimulants for indicated time periods at 37° C. and were then fixed in 4% paraformaldehyde for 5 min at room temperature. The cells were permeabilized with 0.2% Tween 20 for 30 min at 4° C. and the reaction was blocked with 5% goat normal serum for 15 min at room temperature. The rabbit anti-PKCα/β, δ, and ξ, antibodies (1:1000 in DPBS) were applied separately for 1 h at room temperature. After three rinses with DPBS, the cells were stained with FITC-labeled goat anti-rabbit secondary antibody (PharMingen, 1:1000 in DPBS) for 1 h at room temperature. The coverslips were mounted with an anti-fade, water-based mounting medium with Propidium Iodide (PI) (Vector Lab, Burlingamem, Calif.) and analyzed under a laser scanning confocal fluorescence microscope (Zeiss LSM510 NLO Meta, Jena, Germany). Excitation wavelengths 488 (for FITC) and 568 (for PI) nm were used to generate fluorescence emission in green and red, respectively."}}}
{"substance": "CaG: Cathepsin G, serine protease purified from neutrophil granules, purchased from Athens Research & Technology", "values": [{"measurement": "Kd of 125I-CaG binding", "setting": "FPR [1]", "result": "approximately 2 μg/ml"}, {"measurement": "FPR internalization", "setting": "FPR [2]", "result": "significantly and dose-dependently induced FPR internalization"}, {"measurement": "time to activation of ERK1/2", "setting": "ERK1/2; ETFR cells", "result": "1 to 5", "unit": "min"}, {"measurement": "delay to reach maximal activity (MAPK phosphorylation) as compared with fMLF", "setting": "ERK1/2; FPR transfected cells", "result": "10 to 15", "unit": "min"}, {"measurement": "translocation of PKCα/β", "setting": "PKCα/β", "result": "did not induce translocation of PKCα and β"}]}
